Assay results taken from ChEMBL document CHEMBL1145608, “Selective androgen receptor modulators based on a series of 7H-[1,4]oxazino[3,2-g]quinolin-7-ones with improved in vivo activity” (Bioorg Med Chem Lett, 2008).
Calls of active or inactive are those of the source. The rule behind the calls is not given here.

Experiments:
Androgen receptor [1] = target: T1, Androgen receptor (Homo sapiens, UniProt P10275)
T1 sequence (P10275 whole entry): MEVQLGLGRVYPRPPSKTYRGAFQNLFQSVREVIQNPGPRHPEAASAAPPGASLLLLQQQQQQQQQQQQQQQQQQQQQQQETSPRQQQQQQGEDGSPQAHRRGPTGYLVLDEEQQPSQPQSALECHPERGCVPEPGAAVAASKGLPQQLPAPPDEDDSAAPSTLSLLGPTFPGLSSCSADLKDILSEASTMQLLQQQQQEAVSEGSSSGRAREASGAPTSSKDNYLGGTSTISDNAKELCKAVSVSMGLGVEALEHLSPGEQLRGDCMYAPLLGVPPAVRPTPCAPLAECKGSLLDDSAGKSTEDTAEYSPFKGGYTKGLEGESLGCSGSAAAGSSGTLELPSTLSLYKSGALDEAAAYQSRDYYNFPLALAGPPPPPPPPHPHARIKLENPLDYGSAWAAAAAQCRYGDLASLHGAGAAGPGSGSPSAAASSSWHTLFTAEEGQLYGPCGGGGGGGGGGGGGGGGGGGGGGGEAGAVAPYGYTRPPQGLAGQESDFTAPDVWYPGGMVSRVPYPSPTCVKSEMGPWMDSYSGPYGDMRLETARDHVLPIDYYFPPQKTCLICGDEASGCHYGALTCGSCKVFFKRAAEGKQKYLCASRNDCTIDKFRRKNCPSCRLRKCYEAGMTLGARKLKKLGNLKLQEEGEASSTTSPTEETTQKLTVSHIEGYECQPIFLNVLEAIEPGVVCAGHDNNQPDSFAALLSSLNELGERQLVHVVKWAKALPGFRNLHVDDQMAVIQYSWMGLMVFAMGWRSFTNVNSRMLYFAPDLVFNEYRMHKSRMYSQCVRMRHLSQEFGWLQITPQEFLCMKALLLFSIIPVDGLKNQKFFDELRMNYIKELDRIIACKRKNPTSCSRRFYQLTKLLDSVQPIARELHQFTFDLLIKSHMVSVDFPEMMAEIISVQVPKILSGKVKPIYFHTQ
Description: Agonist activity at human androgen receptor in CV1 cells by transcriptional activation assay

Androgen receptor [2] = target: T1, Androgen receptor; test: biochemical
Description: Displacement of [3H]DHT from human Androgen receptor in human MDA-MB-453 cells

Androgen receptor [3] = target: T1, Androgen receptor; remark: listed apart in the source
Description: Antagonist activity at human androgen receptor in CV1 cells by transcriptional activation assay

[4] = Metabolic stability in rat liver microsome at 5 uM; assay type: ADME; settings: liver microsomes
Rattus norvegicus [5] = test: Effect on Levator ani muscle weight maintenance in orchidectomized Sprague-Dawley rat at 3 mg/kg, po; assay type: functional, organism-based; design: dose 3 mg/kg
Rattus norvegicus [6] = test: Effect on Levator ani muscle weight maintenance in orchidectomized Sprague-Dawley rat at 10 mg/kg, po; assay type: functional, organism-based; design: dose 10 mg/kg

CSCC[C@@H]1COc2cc3[nH]c(=O)cc(C(F)(F)F)c3cc2N1CC(F)(F)F
EC50 (Androgen receptor [1]): 23 nM
Ki (Androgen receptor [2]): 2.4 nM

Cc1cccc([C@@H]2COc3cc4[nH]c(=O)cc(C(F)(F)F)c4cc3N2CC(F)(F)F)c1
EC50 (Androgen receptor [1]): 19 nM
Ki (Androgen receptor [2]): 1.1 nM

Cc1cccc([C@H]2COc3cc4[nH]c(=O)cc(C(F)(F)F)c4cc3N2CC(F)(F)F)c1
IC50 (Androgen receptor [3]): 574 nM
Ki (Androgen receptor [2]): 180 nM

CSCC1COc2cc3[nH]c(=O)cc(C(F)(F)F)c3cc2N1CC(F)(F)F (racemic)
IC50 (Androgen receptor [3]): 25 nM
EC50 (Androgen receptor [1]): 28 nM

COC[C@H]1COc2cc3[nH]c(=O)cc(C(F)(F)F)c3cc2N1CC(F)(F)F
IC50 (Androgen receptor [3]): 17 nM
EC50 (Androgen receptor [1]): 77 nM
Ki (Androgen receptor [2]): 109 nM

N#CCC1COc2cc3[nH]c(=O)cc(C(F)(F)F)c3cc2N1CC(F)(F)F (racemic)
EC50 (Androgen receptor [1]): 30 nM
Ki (Androgen receptor [2]): 18 nM

O=c1cc(C(F)(F)F)c2cc3c(cc2[nH]1)OC[C@@H](CC(F)(F)F)N3CC(F)(F)F
EC50 (Androgen receptor [1]): 23 nM
Ki (Androgen receptor [2]): 18 nM

O=c1cc(C(F)(F)F)c2cc3c(cc2[nH]1)OC[C@@H](CF)N3CC(F)(F)F
IC50 (Androgen receptor [3]): 199 nM
EC50 (Androgen receptor [1]): 35 nM
Ki (Androgen receptor [2]): 32 nM

O=c1cc(C(F)(F)F)c2cc3c(cc2[nH]1)OC[C@@H](Cc1ccccc1)N3CC(F)(F)F
IC50 (Androgen receptor [3]): 51 nM

COC[C@@H]1COc2cc3[nH]c(=O)cc(C(F)(F)F)c3cc2N1CC(F)(F)F
EC50 (Androgen receptor [1]): 2 nM
Ki (Androgen receptor [2]): 9.4 nM

O=c1cc(C(F)(F)F)c2cc3c(cc2[nH]1)OCC(C(F)(F)F)N3CC(F)(F)F (racemic)
EC50 (Androgen receptor [1]): 5.9 nM
Ki (Androgen receptor [2]): 8.3 nM

O=c1cc(C(F)(F)F)c2cc3c(cc2[nH]1)OC[C@H](C(F)(F)F)N3CC(F)(F)F
half-life at 5 µM [4]: 100 min
Activity (Rattus norvegicus [5]): Active
EC50 (Androgen receptor [1]): 2 nM
Ki (Androgen receptor [2]): 5.9 nM

CCCOCC1COc2cc3[nH]c(=O)cc(C(F)(F)F)c3cc2N1CC(F)(F)F (racemic)
EC50 (Androgen receptor [1]): 4.2 nM

O=c1cc(C(F)(F)F)c2cc3c(cc2[nH]1)OC[C@@H](C(F)(F)F)N3CC(F)(F)F
IC50 (Androgen receptor [3]): 34 nM
EC50 (Androgen receptor [1]): 42 nM
Ki (Androgen receptor [2]): 281 nM

O=c1cc(C(F)(F)F)c2cc3c(cc2[nH]1)OC[C@@H](CO)N3CC(F)(F)F
IC50 (Androgen receptor [3]): 60 nM
EC50 (Androgen receptor [1]): 11 nM
Ki (Androgen receptor [2]): 15 nM

Cc1ccc([C@H]2COc3cc4[nH]c(=O)cc(C(F)(F)F)c4cc3N2CC(F)(F)F)cc1
IC50 (Androgen receptor [3]): 44 nM

O=c1cc(C(F)(F)F)c2cc3c(cc2[nH]1)OC[C@H](CO)N3CC(F)(F)F
IC50 (Androgen receptor [3]): 165 nM
EC50 (Androgen receptor [1]): 6.6 nM
Ki (Androgen receptor [2]): 22 nM

O=c1cc(C(F)(F)F)c2cc3c(cc2[nH]1)OCC(C(F)F)N3CC(F)(F)F (racemic)
EC50 (Androgen receptor [1]): 1.3 nM
Ki (Androgen receptor [2]): 6.6 nM

O=c1cc(C(F)(F)F)c2cc3c(cc2[nH]1)OC[C@H](c1ccccc1)N3CC(F)(F)F
IC50 (Androgen receptor [3]): 340 nM
Ki (Androgen receptor [2]): 150 nM

O=c1cc(C(F)(F)F)c2cc3c(cc2[nH]1)OC[C@@H](c1ccccc1)N3CC(F)(F)F
EC50 (Androgen receptor [1]): 5.3 nM
Ki (Androgen receptor [2]): 1.3 nM

O=c1cc(C(F)(F)F)c2cc3c(cc2[nH]1)OC[C@H](CF)N3CC(F)(F)F
Activity (Rattus norvegicus [6]): Active
half-life at 5 µM [4]: 34 min
EC50 (Androgen receptor [1]): 3.8 nM
Ki (Androgen receptor [2]): 2.6 nM

Cc1ccc([C@@H]2COc3cc4[nH]c(=O)cc(C(F)(F)F)c4cc3N2CC(F)(F)F)cc1
EC50 (Androgen receptor [1]): 36 nM

CCOCC1COc2cc3[nH]c(=O)cc(C(F)(F)F)c3cc2N1CC(F)(F)F (racemic)
EC50 (Androgen receptor [1]): 3.2 nM
